No end group written: not given here.
Tested on: immature T-cell development (de novo antigens on T lymphocytes)
Assay: T cell development in nude athymic mice (thymopentin vs 4-thiothymopentin)
Assay type: in vivo
Conditions: 20 micrograms per subject
Description: The incorporation of thioamide linkages at positions on the peptide backbone which are susceptible to degradation may be performed in order to increase the peptide's resistance to enzymatic digestion. This enhanced stability may afford greater biological activities to the peptides prolonged existence. For example, thymopentin, which is merely a biologically active fragment of the polypeptide thymopoietin, may be modified to elicit this response. […] A control group of nude athymic mice was administered 20 micrograms of thymopentin per subject according to well-known assay techniques. See, e.g., O. Archer, T. Pierce, B. Papermanter, and R. Good, "Reduced Antibody Response in Thymectomized Rabbits", Nature, 195, 191 (1962); D. Oscaba and J. Miller, "Evidence for a Humeral Thymus Factor Responsible for the Maturation of Immunological Faculty", Nature, 199, 653 (1963); P. Magrit, "T-Cell Development in Normal and Thymopentintreated Nude Mice", J. Exp. Med., 156, 1057 (1982). […]
The immunomodulatory action of thymopentin and 4-thiothymopentin on immature T-cell development by the expression of de novo antigens on T lymphocytes after daily subcutaneous injections for two weeks in four week old nude athymic mice was measured. […]

For RKDVY [thymopentin], which “mean increase for the maturation of T cells and related immune responses” value is on record?
Its value is 43%.

Source: patent publication US5138061A, “Thioacylating reagents” (BioChem Pharma Inc., priority 1989, dated 1992)
